Experiments:
[1] = test system: IL-1β (LPS-stimulated PBMCs); test: IL-1β expression in LPS-stimulated PBMCs in the presence of MIF inhibitors (ELISA); type: cell-based; conditions: Homo sapiens, PBMC, LPS 10 ng/ml and LPS+MIF, ELISA of supernatant
Procedure: (§1) Example QQ: Macrophage Migration Inhibitory Factor (MIF) as a Drug Target Assay Conditions
(§2) a) PBMC Isolation: • Heparinized blood (10 ml) was diluted with equal volume of phosphate buffer saline (PBS). To the Ficoll solution (5 ml) add 5 ml of blood:PBS mixture and centrifuge at 1600 rpm for 30 minutes. Take the buffy coat and wash with PBS at 1200 rpm for 5 minutes (twice). After two wash with PBS, the PBMCs were washed with RPMI medium. The PBMC were counted and plated in 96 well plates (1×10^6 cells/well).
(§3) b) Expression of TNF-α and […] in PBMCs in the Presence of MIF Inhibitors: • After overnight incubation, the cells were treated with different concentration of MIF inhibitors. After 6 hr, cells were treated with LPS (10 ng/ml) and LPS+MIF combination (10 ng/ml) and further incubated for overnight. PBMCs treated with 10 ng/ml of LPS and MIF in the presence of different concentrations of test compounds. After the incubation period, the supernatant were collected and human TNF-α and IL-1β were determined using the ELISA kits (R&D Systems).

[2] = test system: TNF-α (LPS-stimulated PBMCs); test: TNF-α expression in LPS-stimulated PBMCs in the presence of MIF inhibitors (ELISA); type: cell-based; conditions: Homo sapiens, PBMC, LPS 10 ng/ml and LPS+MIF, ELISA of supernatant
Procedure: as §1, §2, §3

EGFR kinase = EGFR kinase (Homo sapiens (Human), UniProt P00533); test: EGFR kinase activity, luminescent ATP/ADP detection assay; type: biochemical; conditions: purified EGFR kinase, 10 min incubation, luminescence ADP detection
Chain of EGFR kinase (P00533 25-1210): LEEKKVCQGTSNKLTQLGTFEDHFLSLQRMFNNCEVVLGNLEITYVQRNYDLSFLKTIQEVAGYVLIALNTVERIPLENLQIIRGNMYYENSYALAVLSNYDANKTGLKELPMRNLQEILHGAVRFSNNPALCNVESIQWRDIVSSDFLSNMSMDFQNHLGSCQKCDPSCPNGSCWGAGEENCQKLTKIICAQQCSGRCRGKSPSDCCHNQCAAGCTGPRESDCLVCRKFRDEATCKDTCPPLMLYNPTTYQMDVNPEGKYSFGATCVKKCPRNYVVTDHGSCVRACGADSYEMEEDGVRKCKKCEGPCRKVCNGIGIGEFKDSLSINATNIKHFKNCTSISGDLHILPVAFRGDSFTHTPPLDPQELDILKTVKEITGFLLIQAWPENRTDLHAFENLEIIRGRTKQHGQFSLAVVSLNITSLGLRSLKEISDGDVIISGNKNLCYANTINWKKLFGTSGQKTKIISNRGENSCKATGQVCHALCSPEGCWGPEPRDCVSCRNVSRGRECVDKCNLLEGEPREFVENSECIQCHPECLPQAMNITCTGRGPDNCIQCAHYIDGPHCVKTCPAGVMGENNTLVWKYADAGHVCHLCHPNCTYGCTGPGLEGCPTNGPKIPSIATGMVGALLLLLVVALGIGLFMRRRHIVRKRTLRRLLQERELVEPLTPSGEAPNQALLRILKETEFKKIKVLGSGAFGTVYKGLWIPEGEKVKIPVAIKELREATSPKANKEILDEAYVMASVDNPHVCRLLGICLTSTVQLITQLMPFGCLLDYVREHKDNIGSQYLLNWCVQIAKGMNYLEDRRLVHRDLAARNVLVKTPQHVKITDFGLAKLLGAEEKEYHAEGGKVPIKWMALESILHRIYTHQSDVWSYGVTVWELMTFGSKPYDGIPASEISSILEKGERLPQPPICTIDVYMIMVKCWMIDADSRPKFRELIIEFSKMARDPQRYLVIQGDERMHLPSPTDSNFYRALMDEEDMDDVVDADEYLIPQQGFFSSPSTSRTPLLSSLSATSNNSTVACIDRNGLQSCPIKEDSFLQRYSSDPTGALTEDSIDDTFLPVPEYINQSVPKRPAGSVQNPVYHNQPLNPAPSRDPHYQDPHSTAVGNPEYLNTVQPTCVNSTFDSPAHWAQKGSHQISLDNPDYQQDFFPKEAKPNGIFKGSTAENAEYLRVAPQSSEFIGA
Procedure: Example RR: EGFR as a Drug Target Assay Conditions
The IC50s of the compounds on EGFR activity were determined using the Luminescent ATP/ADP detection assay system. Briefly, the assay method measures ADP formed from EGFR kinase activity using luminescence derived from ATP-Luciferase detection system. Purified EGFR kinase was incubated with different concentrations of test compound in the kinase reaction buffer for 10 min. The reaction was stopped by depleting the unused ATP in the kinase reaction buffer using the depletion buffer for 40 min. The levels of ADP generated during the kinase reaction was detected by measuring the luminescence using the Luciferase system.

IC50 (EGFR kinase) | SMILES | IC50 [1] | IC50 [2]
 | CCOC(=O)c1c(O[C@H]2CO[C@H]3[C@@H]2OC[C@@H]3O)c2ccccc2n(CC)c1=O [Example A, ethyl 4-[[(3S,3aR,6S,6aR)-3-hydroxy-2,3,3a,5,6,6a-hexahydrofuro[3,2-b]furan-6-yl]oxy]-1-ethyl-2-oxo-1,2-dihydroquinoline-3-carboxylate] | > 1000 nM | > 1000 nM
> 100 nM | COc1cc2ncnc(Nc3ccc(O[C@H]4CO[C@H]5[C@@H]4OC[C@@H]5OCc4ccccc4)c(Cl)c3)c2cc1OC [Example AA, N-[4-[[(3S,3aR,6S,6aR)-3-benzyloxy-2,3,3a,5,6,6a-hexahydrofuro[3,2-b]furan-6-yl]oxy]-3-chloro-phenyl]-6,7-dimethoxy-quinazolin-4-amine] |  | 
 | CCOC(=O)c1c(O[C@H]2CO[C@H]3[C@@H]2OC[C@@H]3OC(C)=O)c2ccccc2n(CC)c1=O [Example B, ethyl 4-[[(3S,3aR,6S,6aR)-6-acetoxy-2,3,3a,5,6,6a-hexahydrofuro[3,2-b]furan-3-yl]oxy]-1-ethyl-2-oxo-1,2-dihydroquinoline-3-carboxylate] | > 10000 nM | > 10000 nM
> 500 nM | COc1cc2ncnc(Nc3ccc(O[C@H]4CO[C@H]5[C@@H]4OC[C@@H]5OC(C)=O)c(Cl)c3)c2cc1OC [Example BB, [(3S,3aR,6S,6aR)-3-[2-chloro-4-[(6,7-dimethoxyquinazolin-4-yl)amino]phenoxy]-2,3,3a,5,6,6a-hexahydrofuro[3,2-b]furan-6-yl] acetate] |  | 
 | CCOC(=O)c1c(O[C@H]2CO[C@H]3[C@@H]2OC[C@@H]3OC(=O)CCl)c2ccccc2n(CC)c1=O [Example C, ethyl 4-[[(3S,3aR,6S,6aR)-6-(2-chloroacetyl)oxy-2,3,3a,5,6,6a-hexahydrofuro[3,2-b]furan-3-yl]oxy]-1-ethyl-2-oxo-1,2-dihydroquinoline-3-carboxylate] | > 500 nM | > 500 nM
> 500 nM | CC(=O)O[C@H]1CO[C@H]2[C@@H]1OC[C@@H]2Oc1ccc(Nc2ncnc3ccsc23)cc1Cl [Example CC, [(3S,3aR,6S,6aR)-3-[2-chloro-4-(thieno[3,2-d]pyrimidin-4-ylamino)phenoxy]-2,3,3a,5,6,6a-hexahydrofuro[3,2-b]furan-6-yl] acetate] |  | 
 | CCOC(=O)c1c(O[C@H]2CO[C@@H]3C=CO[C@H]23)c2ccccc2n(CC)c1=O [Example D, ethyl 4-[[(3S,3aS,6aR)-2,3,3a,6a-tetrahydrofuro[3,2-b]furan-3-yl]oxy]-1-ethyl-2-oxo-1,2-dihydroquinoline-3-carboxylate] | > 10000 nM | > 10000 nM
> 100 nM | COc1cc2ncnc(Nc3ccc(O[C@H]4CO[C@H]5[C@@H]4OC[C@@H]5OC(=O)c4ccccc4)c(Cl)c3)c2cc1OC [Example DD, [(3S,3aR,6S,6aR)-3-[2-chloro-4-[(6,7-dimethoxyquinazolin-4-yl)amino]phenoxy]-2,3,3a,5,6,6a-hexahydrofuro[3,2-b]furan-6-yl] benzoate] |  | 
 | CCOC(=O)c1c(O[C@H]2CO[C@H]3[C@@H]2OC[C@@H]3O)c2ccccc2n(Cc2ccccc2)c1=O [Example E, ethyl 4-[[(3S,3aR,6S,6aR)-3-hydroxy-2,3,3a,5,6,6a-hexahydrofuro[3,2-b]furan-6-yl]oxy]-1-benzyl-2-oxo-1,2-dihydroquinoline-3-carboxylate] | > 500 nM | > 500 nM
 | CCOC(=O)c1c(O[C@H]2CO[C@H]3[C@@H]2OC[C@@H]3OC(C)=O)c2ccccc2n(Cc2ccccc2)c1=O [Example F, ethyl 4-[[(3S,3aR,6S,6aR)-6-acetoxy-2,3,3a,5,6,6a-hexahydrofuro[3,2-b]furan-3-yl]oxy]-1-benzyl-2-oxo-1,2-dihydroquinoline-3-carboxylate] | > 10000 nM | > 10000 nM
 | CCOC(=O)c1c(O[C@H]2CO[C@H]3[C@@H]2OC[C@@H]3OC(=O)CCl)c2ccccc2n(Cc2ccccc2)c1=O [Example G, ethyl 4-[[(3S,3aR,6S,6aR)-6-(2-chloroacetyl)oxy-2,3,3a,5,6,6a-hexahydrofuro[3,2-b]furan-3-yl]oxy]-1-benzyl-2-oxo-1,2-dihydroquinoline-3-carboxylate] | > 100 nM | > 100 nM
 | CCOC(=O)c1c(O[C@H]2CO[C@@H]3C=CO[C@H]23)c2ccccc2n(Cc2ccccc2)c1=O [Example H, ethyl 4-[[(3S,3aS,6aR)-2,3,3a,6a-tetrahydrofuro[3,2-b]furan-3-yl]oxy]-1-benzyl-2-oxo-1,2-dihydroquinoline-3-carboxylate] | > 10000 nM | > 10000 nM
 | CCOC(=O)c1c(O[C@H]2CO[C@H]3[C@@H]2OC[C@@H]3O)c2ccccc2n(Cc2ccc(F)cc2)c1=O [Example I, ethyl 4-[[(3S,3aR,6S,6aR)-3-hydroxy-2,3,3a,5,6,6a-hexahydrofuro[3,2-b]furan-6-yl]oxy]-1-[(4-fluorophenyl)methyl]-2-oxo-1,2-dihydroquinoline-3-carboxylate] | > 500 nM | > 500 nM
 | CCOC(=O)c1c(O[C@H]2CO[C@H]3[C@@H]2OC[C@@H]3OC(=O)CCl)c2ccccc2n(Cc2ccc(F)cc2)c1=O [Example J, ethyl 4-[[(3S,3aR,6S,6aR)-6-(2-chloroacetyl)oxy-2,3,3a,5,6,6a-hexahydrofuro[3,2-b]furan-3-yl]oxy]-1-[(4-fluorophenyl)methyl]-2-oxo-1,2-dihydroquinoline-3-carboxylate] | > 100 nM | > 100 nM
 | N#Cc1c(O[C@H]2CO[C@H]3[C@@H]2OC[C@@H]3O)c2ccccc2n(Cc2ccccc2)c1=O [Example K, 4-[[(3S,3aR,6S,6aR)-3-hydroxy-2,3,3a,5,6,6a-hexahydrofuro[3,2-b]furan-6-yl]oxy]-1-benzyl-2-oxo-1,2-dihydroquinoline-3-carbonitrile] | > 100 nM | > 100 nM
 | CC(=O)O[C@H]1CO[C@H]2[C@@H]1OC[C@@H]2Oc1c(C#N)c(=O)n(Cc2ccccc2)c2ccccc12 [Example L, [(3S,3aR,6S,6aR)-3-[(1-benzyl-3-cyano-2-oxo-4-quinolyl)oxy]-2,3,3a,5,6,6a-hexahydrofuro[3,2-b]furan-6-yl] acetate] | > 1000 nM | > 1000 nM
 | N#Cc1c(O[C@H]2CO[C@H]3[C@@H]2OC[C@@H]3OC(=O)CCl)c2ccccc2n(Cc2ccccc2)c1=O [Example M, [(3S,3aR,6S,6aR)-3-[(1-benzyl-3-cyano-2-oxo-4-quinolyl)oxy]-2,3,3a,5,6,6a-hexahydrofuro[3,2-b]furan-6-yl] 2-chloroacetate] | > 500 nM | > 500 nM
 | N#Cc1c(O[C@H]2CO[C@H]3[C@@H]2OC[C@@H]3O)c2ccccc2n(Cc2ccc(F)cc2)c1=O [Example N, 4-[[(3S,3aR,6S,6aR)-3-hydroxy-2,3,3a,5,6,6a-hexahydrofuro[3,2-b]furan-6-yl]oxy]-1-[(4-fluorophenyl)methyl]-2-oxo-1,2-dihydroquinoline-3-carbonitrile] | > 10000 nM | > 100 nM
 | CC(=O)O[C@H]1CO[C@H]2[C@@H]1OC[C@@H]2Oc1c(C#N)c(=O)n(Cc2ccc(F)cc2)c2ccccc12 [Example O, [(3S,3aR,6S,6aR)-3-[[3-cyano-1-[(4-fluorophenyl)methyl]-2-oxo-4-quinolyl]oxy]-2,3,3a,5,6,6a-hexahydrofuro[3,2-b]furan-6-yl] acetate] | > 10000 nM | > 100 nM
 | N#Cc1c(O[C@H]2CO[C@H]3[C@@H]2OC[C@@H]3OC(=O)c2ccccc2)c2ccccc2n(Cc2ccc(F)cc2)c1=O [Example P, [(3S,3aR,6S,6aR)-3-[[3-cyano-1-[(4-fluorophenyl)methyl]-2-oxo-4-quinolyl]oxy]-2,3,3a,5,6,6a-hexahydrofuro[3,2-b]furan-6-yl] benzoate] | > 10000 nM | > 10000 nM
 | N#Cc1c(O[C@H]2CO[C@H]3[C@@H]2OC[C@@H]3OC(=O)CCl)c2ccccc2n(Cc2ccc(F)cc2)c1=O [Example Q, [(3S,3aR,6S,6aR)-3-[[3-cyano-1-[(4-fluorophenyl)methyl]-2-oxo-4-quinolyl]oxy]-2,3,3a,5,6,6a-hexahydrofuro[3,2-b]furan-6-yl] 2-chloroacetate] | > 100 nM | > 100 nM
 | N#Cc1c(Nc2ccc(O[C@H]3CO[C@H]4[C@@H]3OC[C@@H]4O)c(Cl)c2)c2ccccc2n(Cc2ccccc2)c1=O [Example R, 4-[4-[[(3S,3aR,6S,6aR)-3-hydroxy-2,3,3a,5,6,6a-hexahydrofuro[3,2-b]furan-6-yl]oxy]-3-chloro-anilino]-1-benzyl-2-oxo-1,2-dihydroquinoline-3-carbonitrile] | > 100 nM | > 100 nM
 | CCOC(=O)c1c(Nc2ccc(O[C@H]3CO[C@H]4[C@@H]3OC[C@@H]4O)c(Cl)c2)c2ccccc2n(Cc2ccccc2)c1=O [Example S, ethyl 4-[4-[[(3S,3aR,6S,6aR)-3-hydroxy-2,3,3a,5,6,6a-hexahydrofuro[3,2-b]furan-6-yl]oxy]-3-chloro-anilino]-1-benzyl-2-oxo-1,2-dihydroquinoline-3-carboxylate] | > 500 nM | > 500 nM
